Laboratory results taken from the CheMixHub ionic liquid set.

Experiment: xn = mol fraction of the nth substance listed
Conditions: 101 kPa, x2 = 0

CCCCCCCCCCCCOS(=O)(=O)[O-].[Na+] + Cc1ncc(C[n+]2csc(CCO)c2C)c(N)n1.Cl.[Cl-] + O
electrical conductivity [S/m]
Conditions | 288.15 K | 298.15 K | 308.15 K | 318.15 K
x1 = 7.35e-06 | 0.00102 | 0.00389 | 0.00521 | 0.0057
x1 = 1.463e-05 | 0.00278 | 0.00675 | 0.0087 | 0.00954
x1 = 2.184e-05 | 0.00515 | 0.00896 | 0.012 | 0.0133
x1 = 2.898e-05 | 0.00708 | 0.0117 | 0.0152 | 0.017
x1 = 3.604e-05 | 0.00931 | 0.0145 | 0.0186 | 0.0208
x1 = 4.303e-05 | 0.0116 | 0.0171 | 0.0219 | 0.0244
x1 = 4.997e-05 | 0.0139 | 0.0198 | 0.0251 | 0.0279
x1 = 5.683e-05 | 0.0162 | 0.0224 | 0.0283 | 0.0313
x1 = 6.362e-05 | 0.0186 | 0.0244 | 0.0315 | 0.0347
x1 = 7.036e-05 | 0.0202 | 0.027 | 0.0345 | 0.0381
x1 = 7.703e-05 | 0.0225 | 0.0296 | 0.0375 | 0.0414
x1 = 8.364e-05 | 0.0247 | 0.0321 | 0.0405 | 0.0448
x1 = 9.018e-05 | 0.0269 | 0.0347 | 0.0432 | 0.0481
x1 = 9.658e-05 | 0.0286 | 0.0371 | 0.0461 | 0.0513
x1 = 0.0001031 | 0.0307 | 0.0395 | 0.0491 | 0.0543
x1 = 0.0001094 | 0.0328 | 0.0419 | 0.0517 | 0.0573
x1 = 0.0001157 | 0.035 | 0.0442 | 0.0544 | 0.0602
x1 = 0.000122 | 0.037 | 0.0466 | 0.0568 | 0.0632
x1 = 0.0001281 | 0.039 | 0.0488 | 0.0602 | 0.0659
x1 = 0.0001342 | 0.0411 | 0.0509 | 0.0625 | 0.0687
x1 = 0.0001404 | 0.0425 | 0.0524 | 0.0647 | 0.0711
x1 = 0.0001465 | 0.0432 | 0.0543 | 0.0667 | 0.0734
x1 = 0.0001524 | 0.0444 | 0.0559 | 0.0685 | 0.0755
x1 = 0.0001584 | 0.0452 | 0.0571 | 0.0701 | 0.0774
x1 = 0.0001641 | 0.0462 | 0.0582 | 0.0716 | 0.079
x1 = 0.0001699 | 0.0469 | 0.0592 | 0.0729 | 0.0805
x1 = 0.0001757 | 0.0478 | 0.0601 | 0.0742 | 0.0819
x1 = 0.0001814 | 0.0487 | 0.0609 | 0.0753 | 0.0832
x1 = 0.000187 | 0.0495 | 0.0617 | 0.0764 | 0.0845
x1 = 0.0001928 | 0.0501 | 0.0626 | 0.0775 | 0.0857
x1 = 0.0001982 | 0.0507 | 0.0634 | 0.0785 | 0.0868
x1 = 0.0002038 | 0.0513 | 0.0641 | 0.0796 | 0.0879
x1 = 0.0002092 | 0.0517 | 0.0648 | 0.0805 | 0.089
x1 = 0.0002147 | 0.0521 | 0.0654 | 0.0815 | 0.0902
x1 = 0.00022 | 0.0527 | 0.066 | 0.0824 | 0.0912
x1 = 0.0002254 | 0.0532 | 0.0666 | 0.0834 | 0.0924
x1 = 0.0002306 | 0.0537 | 0.0673 | 0.0843 | 0.0936
x1 = 0.0002358 | 0.0542 | 0.068 | 0.0852 | 0.0946
x1 = 0.0002411 | 0.0548 | 0.0686 | 0.0861 | 0.0956
x1 = 0.0002463 | 0.0554 | 0.0693 | 0.087 | 0.0966
